# Where a SMILES comes first, the peptide text is derived from it. Bridges are numbered along the chain shown (N, C = ends). [ ]: non-standard residue; d: D form. The star is where a group is joined. ξ: configuration not given here. Phe(4-COOH) = N[C@@H](Cc1ccc(C(=O)O)cc1)C(=O)O; Bip = N[C@@H](Cc1ccc(-c2ccccc2)cc1)C(=O)O; Phe(3-Me) = Cc1cccc(C[C@H](N)C(=O)O)c1; Val(3-OH) = CC(C)(O)[C@H](N)C(=O)O; 4Pal = N[C@@H](Cc1ccncc1)C(=O)O; Cha = N[C@@H](CC1CCCCC1)C(=O)O; Cit = NC(=O)NCCC[C@H](N)C(=O)O; Ile(3ξ) = CCC(C)[C@H](N)C(=O)O; Carboxymethyl = O=C(O)C*; NMeA = CN[C@@H](C)C(=O)O; Orn = NCCC[C@H](N)C(=O)O; Aun = NCCCCCCCCCCC(=O)O; Dab = NCC[C@H](N)C(=O)O; AEEA = NCCOCCOCC(=O)O
# Target: T1, PD-1/PD-L1 interaction (PE-labeled human PD-L1-Ig binding to Jurkat cell line over-expressing human PD-1) (Homo sapiens, UniProt Q15116)
# T1 construct: expressed in transfected cells; host or cells: Jurkat
# T1 sequence (Q15116 25-288): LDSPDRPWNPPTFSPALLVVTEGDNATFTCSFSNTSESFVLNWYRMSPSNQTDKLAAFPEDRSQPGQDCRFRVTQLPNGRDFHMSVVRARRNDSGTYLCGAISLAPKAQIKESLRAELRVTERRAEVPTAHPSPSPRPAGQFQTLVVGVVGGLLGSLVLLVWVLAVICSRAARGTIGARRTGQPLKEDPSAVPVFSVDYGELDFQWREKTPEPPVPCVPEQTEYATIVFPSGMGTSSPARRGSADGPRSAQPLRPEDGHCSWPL
# Assay: Jurkat-PD-1 Cell Binding High-Content Screening Assay (CBA)
# Settings: Jurkat-hPD-1 cells, PE-labeled PD-L1-Ig 20 nM final; read-out: Jurkat HPD1 PDL1 IC50
# How it was run: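 Jurkat-hPD-1 cells (8×10^3/well) in DMEM with 10% fetal calf serum were preincubated with compound for 2 h at 37 °C. PE-labeled PD-L1-Ig was then added at 20 nM final for 1 h. Cells were fixed in paraformaldehyde with Hoechst 33342, washed and imaged by high-content imaging.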
row,IC50,Compound
1,0.0181 µM,CC(C)C[C@@H]1NC(=O)[C@H](Cc2c[nH]c3ccccc23)NC(=O)[C@H](CC(=O)O)NC(=O)[C@H](Cc2ccc(C(=O)O)cc2)NC(=O)[C@H](Cc2ccc(OCC(=O)O)cc2)NC(=O)CSC[C@@H](C(=O)N[C@@H](CC(N)=O)C(=O)NCCOCCOCC(=O)NCCCCCCCCCCC(=O)O)NC(=O)[C@H](CO)NC(=O)[C@H](C(C)(C)O)NC(=O)[C@H](CC2CCCCC2)NC(=O)[C@H](CCN)NC(=O)[C@@H](CC(C)C)NC(=O)[C@H](C)N(C)C(=O)[C@H](C(C)C)NC(=O)[C@H](Cc2ccc(-c3ccccc3)cc2)NC1=O [Example 1413] ({CH2CO}-Y(Carboxymethyl)[Phe(4-COOH)]DWL[Bip]V[NMeA][dL][Dab][Cha][Val(3-OH)]SCN[AEEA][Aun]-OH; thioether N-14)
2,0.003 µM,CCC(C)[C@@H]1NC(=O)[C@H](Cc2ccc(-c3ccccc3)cc2)NC(=O)[C@H](CC(C)C)NC(=O)[C@H](Cc2c[nH]c3ccccc23)NC(=O)[C@H](CC(=O)O)NC(=O)[C@H](Cc2ccc(C(=O)O)cc2)NC(=O)[C@H](Cc2ccc(OCC(=O)O)cc2)NC(=O)CSC[C@@H](C(=O)N[C@@H](CCN)C(=O)NCCOCCOCC(=O)NCCCCCCCCCCC(=O)O)NC(=O)[C@H](CCC(=O)O)NC(=O)[C@H](C(C)(C)O)NC(=O)[C@H](CC2CCCCC2)NC(=O)[C@H](CCN)NC(=O)[C@@H](CC(C)C)NC(=O)[C@H](C)N(C)C1=O (stereo partly drawn) [Example 1414] ({CH2CO}-Y(Carboxymethyl)[Phe(4-COOH)]DWL[Bip][Ile(3ξ)][NMeA][dL][Dab][Cha][Val(3-OH)]EC[Dab][AEEA][Aun]-OH; thioether N-14)
3,0.172 µM,Cc1cccc(C[C@@H]2NC(=O)[C@H](CC(=O)O)NC(=O)[C@H](Cc3ccc(OCC(=O)O)cc3)NC(=O)[C@H]([C@@H](C)O)NC(=O)CSC[C@@H](C(=O)N[C@@H](CC(N)=O)C(=O)NCCOCCOCC(=O)NCCCCCCCCCCC(=O)O)NC(=O)[C@H](CCC(=O)O)NC(=O)[C@H](C(C)(C)O)NC(=O)[C@H](CC3CCCCC3)NC(=O)[C@H](CCN)NC(=O)[C@@H](CC(C)C)NC(=O)[C@H](C)N(C)C(=O)[C@H](Cc3ccc(OCC(=O)O)cc3)NC(=O)[C@H](Cc3ccc(-c4ccccc4)cc3)NC(=O)[C@H](Cc3ccc(OCC(=O)O)cc3)NC2=O)c1 [Example 1415] ({CH2CO}-TY(Carboxymethyl)D[Phe(3-Me)]Y(Carboxymethyl)[Bip]Y(Carboxymethyl)[NMeA][dL][Dab][Cha][Val(3-OH)]ECN[AEEA][Aun]-OH; thioether N-14)
4,0.311 µM,Cc1cccc(C[C@@H]2NC(=O)[C@H](CC(=O)O)NC(=O)[C@H](Cc3ccc(OCC(=O)O)cc3)NC(=O)[C@H]([C@@H](C)O)NC(=O)CSC[C@@H](C(=O)N[C@H](CC(N)=O)C(=O)NCCOCCOCC(=O)NCCCCCCCCCCC(=O)O)NC(=O)[C@H](CCC(=O)O)NC(=O)[C@H](C(C)(C)O)NC(=O)[C@H](CC3CCCCC3)NC(=O)[C@H](CCN)NC(=O)[C@@H](CC(C)C)NC(=O)[C@H](C)N(C)C(=O)[C@H](Cc3ccc(OCC(=O)O)cc3)NC(=O)[C@H](Cc3ccc(-c4ccccc4)cc3)NC(=O)[C@H](Cc3ccc(OCC(=O)O)cc3)NC2=O)c1 [Example 1416] ({CH2CO}-TY(Carboxymethyl)D[Phe(3-Me)]Y(Carboxymethyl)[Bip]Y(Carboxymethyl)[NMeA][dL][Dab][Cha][Val(3-OH)]EC[dN][AEEA][Aun]-OH; thioether N-14)

# More lines, now with the values behind:
row,Compound,IC50
1,Cc1cccc(C[C@@H]2NC(=O)[C@H](CC(=O)O)NC(=O)[C@H](Cc3ccc(C(=O)O)cc3)NC(=O)[C@H](Cc3ccncc3)NC(=O)CSC[C@@H](C(=O)N[C@@H](CCN)C(=O)NCCOCCOCC(=O)NCCCCCCCCCCC(=O)O)NC(=O)[C@H](CCCN)NC(=O)[C@H](C(C)C)NC(=O)[C@H](CC3CCCCC3)NC(=O)[C@H](CCN)NC(=O)[C@@H](CC(C)C)NC(=O)[C@H](C)N(C)C(=O)[C@H](Cc3ccc(OCC(=O)O)cc3)NC(=O)[C@H](Cc3ccc(-c4ccccc4)cc3)NC(=O)[C@H](Cc3ccc(OCC(=O)O)cc3)NC2=O)c1 [Example 1405] ({CH2CO}-[4Pal][Phe(4-COOH)]D[Phe(3-Me)]Y(Carboxymethyl)[Bip]Y(Carboxymethyl)[NMeA][dL][Dab][Cha]V[Orn]C[Dab][AEEA][Aun]-OH; thioether N-14),0.0236 µM
2,Cc1cccc(C[C@@H]2NC(=O)[C@H](CC(=O)O)NC(=O)[C@H](Cc3ccc(C(=O)O)cc3)NC(=O)[C@H](Cc3ccncc3)NC(=O)CSC[C@@H](C(=O)N[C@@H](CCN)C(=O)NCCOCCOCC(=O)NCCCCCCCCCCC(=O)O)NC(=O)[C@H](CCCN)NC(=O)[C@H](C(C)C)NC(=O)[C@H](CC3CCCCC3)NC(=O)[C@H](CCN)NC(=O)[C@@H](CC(C)C)NC(=O)[C@H](C)N(C)C(=O)[C@H](CCCNC(N)=O)NC(=O)[C@H](Cc3ccc(-c4ccccc4)cc3)NC(=O)[C@H](Cc3ccc(OCC(=O)O)cc3)NC2=O)c1 [Example 1406] ({CH2CO}-[4Pal][Phe(4-COOH)]D[Phe(3-Me)]Y(Carboxymethyl)[Bip][Cit][NMeA][dL][Dab][Cha]V[Orn]C[Dab][AEEA][Aun]-OH; thioether N-14),0.0511 µM
3,CCC(C)[C@@H]1NC(=O)[C@H](Cc2ccc(-c3ccccc3)cc2)NC(=O)[C@H](Cc2ccc(OCC(=O)O)cc2)NC(=O)[C@H](Cc2cccc(C)c2)NC(=O)[C@H](CC(=O)O)NC(=O)[C@H](Cc2ccc(C(=O)O)cc2)NC(=O)[C@H](Cc2ccncc2)NC(=O)CSC[C@@H](C(=O)N[C@@H](CCN)C(=O)NCCOCCOCC(=O)NCCCCCCCCCCC(=O)O)NC(=O)[C@H](CCCN)NC(=O)[C@H](C(C)C)NC(=O)[C@H](CC2CCCCC2)NC(=O)[C@H](CCN)NC(=O)[C@@H](CC(C)C)NC(=O)[C@H](C)N(C)C1=O (stereo partly drawn) [Example 1407] ({CH2CO}-[4Pal][Phe(4-COOH)]D[Phe(3-Me)]Y(Carboxymethyl)[Bip][Ile(3ξ)][NMeA][dL][Dab][Cha]V[Orn]C[Dab][AEEA][Aun]-OH; thioether N-14),0.0899 µM
4,Cc1cccc(C[C@@H]2NC(=O)[C@H](CC(=O)O)NC(=O)[C@H](Cc3ccc(OCC(=O)O)cc3)NC(=O)[C@H]([C@@H](C)O)NC(=O)CSC[C@@H](C(=O)N[C@@H](CCN)C(=O)NCCOCCOCC(=O)NCCCCCCCCCCC(=O)O)NC(=O)[C@H](CCC(=O)O)NC(=O)[C@H](C(C)(C)O)NC(=O)[C@H](CC3CCCCC3)NC(=O)[C@H](CCN)NC(=O)[C@@H](CC(C)C)NC(=O)[C@H](C)N(C)C(=O)[C@H](Cc3ccc(OCC(=O)O)cc3)NC(=O)[C@H](Cc3ccc(-c4ccccc4)cc3)NC(=O)[C@H](Cc3ccc(OCC(=O)O)cc3)NC2=O)c1 [Example 1408] ({CH2CO}-TY(Carboxymethyl)D[Phe(3-Me)]Y(Carboxymethyl)[Bip]Y(Carboxymethyl)[NMeA][dL][Dab][Cha][Val(3-OH)]EC[Dab][AEEA][Aun]-OH; thioether N-14),0.0289 µM
5,CCC(C)[C@@H]1NC(=O)[C@H](Cc2ccc(-c3ccccc3)cc2)NC(=O)[C@H](CC(C)C)NC(=O)[C@H](Cc2c[nH]c3ccccc23)NC(=O)[C@H](CC(=O)O)NC(=O)[C@H](Cc2ccc(C(=O)O)cc2)NC(=O)[C@H](Cc2ccc(OCC(=O)O)cc2)NC(=O)CSC[C@@H](C(=O)N[C@@H](CC(N)=O)C(=O)NCCOCCOCC(=O)NCCCCCCCCCCC(=O)O)NC(=O)[C@H](CO)NC(=O)[C@H](C(C)(C)O)NC(=O)[C@H](CC2CCCCC2)NC(=O)[C@H](CCN)NC(=O)[C@@H](CC(C)C)NC(=O)[C@H](C)N(C)C1=O (stereo partly drawn) [Example 1409] ({CH2CO}-Y(Carboxymethyl)[Phe(4-COOH)]DWL[Bip][Ile(3ξ)][NMeA][dL][Dab][Cha][Val(3-OH)]SCN[AEEA][Aun]-OH; thioether N-14),0.0237 µM
6,CCC(C)[C@@H]1NC(=O)[C@H](Cc2ccc(-c3ccccc3)cc2)NC(=O)[C@H](CC(C)C)NC(=O)[C@H](Cc2c[nH]c3ccccc23)NC(=O)[C@H](CC(=O)O)NC(=O)[C@H](Cc2ccc(C(=O)O)cc2)NC(=O)[C@H](Cc2ccc(OCC(=O)O)cc2)NC(=O)CSC[C@@H](C(=O)N[C@@H](CCN)C(=O)NCCOCCOCC(=O)NCCCCCCCCCCC(=O)O)NC(=O)[C@H](CO)NC(=O)[C@H](C(C)(C)O)NC(=O)[C@H](CC2CCCCC2)NC(=O)[C@H](CCN)NC(=O)[C@@H](CC(C)C)NC(=O)[C@H](C)N(C)C1=O (stereo partly drawn) [Example 1410] ({CH2CO}-Y(Carboxymethyl)[Phe(4-COOH)]DWL[Bip][Ile(3ξ)][NMeA][dL][Dab][Cha][Val(3-OH)]SC[Dab][AEEA][Aun]-OH; thioether N-14),0.0162 µM
7,CC(C)C[C@@H]1NC(=O)[C@H](Cc2c[nH]c3ccccc23)NC(=O)[C@H](CC(=O)O)NC(=O)[C@H](Cc2ccc(C(=O)O)cc2)NC(=O)[C@H](Cc2ccc(OCC(=O)O)cc2)NC(=O)CSC[C@@H](C(=O)N[C@@H](CCN)C(=O)NCCOCCOCC(=O)NCCCCCCCCCCC(=O)O)NC(=O)[C@H](CO)NC(=O)[C@H](C(C)(C)O)NC(=O)[C@H](CC2CCCCC2)NC(=O)[C@H](CCN)NC(=O)[C@@H](CC(C)C)NC(=O)[C@H](C)N(C)C(=O)[C@H](C(C)C)NC(=O)[C@H](Cc2ccc(-c3ccccc3)cc2)NC1=O [Example 1411] ({CH2CO}-Y(Carboxymethyl)[Phe(4-COOH)]DWL[Bip]V[NMeA][dL][Dab][Cha][Val(3-OH)]SC[Dab][AEEA][Aun]-OH; thioether N-14),0.0097 µM
8,Cc1cccc(C[C@@H]2NC(=O)[C@H](CC(=O)O)NC(=O)[C@H](Cc3ccncc3)NC(=O)[C@H](Cc3ccc(OCC(=O)O)cc3)NC(=O)CSC[C@@H](C(=O)N[C@@H](CCN)C(=O)NCCOCCOCC(=O)NCCCCCCCCCCC(=O)O)NC(=O)[C@H](CO)NC(=O)[C@H](C(C)(C)O)NC(=O)[C@H](CC3CCCCC3)NC(=O)[C@H](CCN)NC(=O)[C@@H](CC(C)C)NC(=O)[C@H](C)N(C)C(=O)[C@H](Cc3ccc(OCC(=O)O)cc3)NC(=O)[C@H](Cc3ccc(-c4ccccc4)cc3)NC(=O)[C@H](Cc3ccc(OCC(=O)O)cc3)NC2=O)c1 [Example 1412] ({CH2CO}-Y(Carboxymethyl)[4Pal]D[Phe(3-Me)]Y(Carboxymethyl)[Bip]Y(Carboxymethyl)[NMeA][dL][Dab][Cha][Val(3-OH)]SC[Dab][AEEA][Aun]-OH; thioether N-14),0.207 µM
